Literature values, collected in US5084277A, “Vaginal progesterone tablet” (priority 1990, dated 1992).

Tests used:
[1] = not given; remark: listed apart in the source

CC(=O)[C@H]1CC[C@H]2[C@@H]3CCC4=CC(=O)CC[C@]4(C)[C@H]3CC[C@]12C [progesterone, pregn-4-ene-3,20-dione]
Tolerability of parenteral administration (deep intramuscular injections): often very painful and irritating at the site of injection | Serum levels after oral administration (in vivo, po): significant but highly variable serum levels | Absorption by the rectal route (rectal): highly variable | Plasma half-life of endogenous progesterone ([1]; endogenous): a few minutes | Storage of progesterone in body fat ([1]; in vivo): A small amount of progesterone is stored in body fat | Time within which all exogenous progesterone is metabolized ([1]; suggested by Myers et al.): ≤ 24 h
